Measured values as given in PubChem BioAssay AID1963443 (Molecular Pharmacology Branch, DTP, NCI, 2024).

System: MDA-MB-231 complex spheroids, growth inhibition
Test: Anticancer human tumor MDA-MB-231 cell line growth inhibition [Asc];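 note: spheroids exposed to compounds for 7 days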
Conditions: for IC50: curve of first compound; for viability, T/C: stronger effect = lower value
Summary of the method: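 Concentration series start at each agent's clinical Cmax, or at 10 microM when none is established, and drop in half-log steps; agents are applied alone or together to complex spheroids built with HUVEC and hMSC.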

[1] = second compound 0.1 µM, first compound 0.00316 µM
[2] = second compound 0.1 µM, first compound 0.01 µM
[3] = second compound 0.1 µM, first compound 0.0316 µM
[4] = second compound 0.1 µM, first compound 0.1 µM
[5] = second compound 0.316 µM, first compound 0.00316 µM
[6] = second compound 0.316 µM, first compound 0.01 µM
[7] = second compound 0.316 µM, first compound 0.0316 µM
[8] = second compound 0.316 µM, first compound 0.1 µM
[9] = second compound 1 µM, first compound 0.00316 µM
[10] = second compound 1 µM, first compound 0.01 µM
[11] = second compound 1 µM, first compound 0.0316 µM
[12] = second compound 1 µM, first compound 0.1 µM
[13] = second compound 3.16 µM, first compound 0.00316 µM
[14] = second compound 3.16 µM, first compound 0.01 µM
[15] = second compound 3.16 µM, first compound 0.0316 µM
[16] = second compound 3.16 µM, first compound 0.1 µM
[17] = second compound 10 µM, first compound 0.00316 µM
[18] = second compound 10 µM, first compound 0.01 µM
[19] = second compound 10 µM, first compound 0.0316 µM
[20] = second compound 10 µM, first compound 0.1 µM

## COc1c(OCCCN2CCOCC2)ccc2c3n(c(=NC(=O)c4cnc(N)nc4)nc12)CCN3 + Cc1c(S(C)(=O)=O)c(-c2cc(F)cc(N3CCN(c4ccc(NS(=O)(=O)c5ccc(NC(CCN6CCC(C(=O)OCCCP(=O)(O)O)CC6)CSc6ccccc6)c(S(=O)(=O)C(F)(F)F)c5)cc4)CC3)c2)c(-c2ccc(Cl)cc2)n1C(C)C
Second compound 0.1 µM
  IC50: 95.4 nM
Second compound 0.316 µM
  IC50: 72.9 nM
Second compound 1 µM
  IC50: 64.2 nM
Second compound 3.16 µM
  IC50: 44.5 nM
Second compound 10 µM
  IC50: 49 nM
[1]
  viability, T/C: 85.8%
[2]
  viability, T/C: 85.2%
[3]
  viability, T/C: 67.7%
[4]
  viability, T/C: 49.3%
Second compound 0.1 µM, first compound 0.316 µM
  viability, T/C: 31.3%
Second compound 0.1 µM, first compound 1 µM
  viability, T/C: 20.1%
[5]
  viability, T/C: 94.6%
[6]
  viability, T/C: 81.1%
[7]
  viability, T/C: 63%
[8]
  viability, T/C: 47%
Second compound 0.316 µM, first compound 0.316 µM
  viability, T/C: 24.3%
Second compound 0.316 µM, first compound 1 µM
  viability, T/C: 12.1%
[9]
  viability, T/C: 94.8%
[10]
  viability, T/C: 85.1%
[11]
  viability, T/C: 66%
[12]
  viability, T/C: 40.8%
Second compound 1 µM, first compound 0.316 µM
  viability, T/C: 17.6%
Second compound 1 µM, first compound 1 µM
  viability, T/C: 8.74%
[13]
  viability, T/C: 88.1%
[14]
  viability, T/C: 84.2%
[15]
  viability, T/C: 54.6%
[16]
  viability, T/C: 32.8%
Second compound 3.16 µM, first compound 0.316 µM
  viability, T/C: 12.1%
Second compound 3.16 µM, first compound 1 µM
  viability, T/C: 5.37%
[17]
  viability, T/C: 90.3%
[18]
  viability, T/C: 85.1%
[19]
  viability, T/C: 59.8%
[20]
  viability, T/C: 32.5%
Second compound 10 µM, first compound 0.316 µM
  viability, T/C: 10.2%
Second compound 10 µM, first compound 1 µM
  viability, T/C: 3.64%

## NC(=O)C(=Cn1cnc(-c2cc(C(F)(F)F)cc(C(F)(F)F)c2)n1)c1cncnc1 + Cc1c(S(C)(=O)=O)c(-c2cc(F)cc(N3CCN(c4ccc(NS(=O)(=O)c5ccc(NC(CCN6CCC(C(=O)OCCCP(=O)(O)O)CC6)CSc6ccccc6)c(S(=O)(=O)C(F)(F)F)c5)cc4)CC3)c2)c(-c2ccc(Cl)cc2)n1C(C)C
Second compound 0.1 µM
  IC50: 63.4 nM
Second compound 0.316 µM
  IC50: 56.5 nM
Second compound 1 µM
  IC50: 50.8 nM
Second compound 3.16 µM
  IC50: 38.8 nM
Second compound 10 µM
  IC50: 43.3 nM
Second compound 0.1 µM, first compound 0.000949 µM
  viability, T/C: 100%
Second compound 0.1 µM, first compound 0.003 µM
  viability, T/C: 101%
Second compound 0.1 µM, first compound 0.00949 µM
  viability, T/C: 86.3%
Second compound 0.1 µM, first compound 0.03 µM
  viability, T/C: 62.6%
Second compound 0.1 µM, first compound 0.0949 µM
  viability, T/C: 43.7%
Second compound 0.1 µM, first compound 0.3 µM
  viability, T/C: 6.26%
Second compound 0.316 µM, first compound 0.000949 µM
  viability, T/C: 111%
Second compound 0.316 µM, first compound 0.003 µM
  viability, T/C: 103%
Second compound 0.316 µM, first compound 0.00949 µM
  viability, T/C: 89.8%
Second compound 0.316 µM, first compound 0.03 µM
  viability, T/C: 64.9%
Second compound 0.316 µM, first compound 0.0949 µM
  viability, T/C: 37.4%
Second compound 0.316 µM, first compound 0.3 µM
  viability, T/C: 4.18%
Second compound 1 µM, first compound 0.000949 µM
  viability, T/C: 104%
Second compound 1 µM, first compound 0.003 µM
  viability, T/C: 103%
Second compound 1 µM, first compound 0.00949 µM
  viability, T/C: 88.5%
Second compound 1 µM, first compound 0.03 µM
  viability, T/C: 67.4%
Second compound 1 µM, first compound 0.0949 µM
  viability, T/C: 30.2%
Second compound 1 µM, first compound 0.3 µM
  viability, T/C: 2.94%
Second compound 3.16 µM, first compound 0.000949 µM
  viability, T/C: 98.1%
Second compound 3.16 µM, first compound 0.003 µM
  viability, T/C: 93.7%
Second compound 3.16 µM, first compound 0.00949 µM
  viability, T/C: 84.4%
Second compound 3.16 µM, first compound 0.03 µM
  viability, T/C: 60%
Second compound 3.16 µM, first compound 0.0949 µM
  viability, T/C: 19.2%
Second compound 3.16 µM, first compound 0.3 µM
  viability, T/C: 2.31%
Second compound 10 µM, first compound 0.000949 µM
  viability, T/C: 105%
Second compound 10 µM, first compound 0.003 µM
  viability, T/C: 103%
Second compound 10 µM, first compound 0.00949 µM
  viability, T/C: 97.3%
Second compound 10 µM, first compound 0.03 µM
  viability, T/C: 68%
Second compound 10 µM, first compound 0.0949 µM
  viability, T/C: 12.1%
Second compound 10 µM, first compound 0.3 µM
  viability, T/C: 0.73%

## NC1CCC(NC2CC2c2ccccc2)CC1 (stereo not given) + Cc1c(S(C)(=O)=O)c(-c2cc(F)cc(N3CCN(c4ccc(NS(=O)(=O)c5ccc(NC(CCN6CCC(C(=O)OCCCP(=O)(O)O)CC6)CSc6ccccc6)c(S(=O)(=O)C(F)(F)F)c5)cc4)CC3)c2)c(-c2ccc(Cl)cc2)n1C(C)C
Second compound 0.1 µM
  IC50: > 100 nM
Second compound 0.316 µM
  IC50: > 100 nM
Second compound 1 µM
  IC50: > 100 nM
Second compound 3.16 µM
  IC50: > 100 nM
Second compound 10 µM
  IC50: > 100 nM
Second compound 0.1 µM, first compound 0.000316 µM
  viability, T/C: 102%
Second compound 0.1 µM, first compound 0.001 µM
  viability, T/C: 98.7%
[1]
  viability, T/C: 104%
[2]
  viability, T/C: 99.1%
[3]
  viability, T/C: 92.5%
[4]
  viability, T/C: 103%
Second compound 0.316 µM, first compound 0.000316 µM
  viability, T/C: 104%
Second compound 0.316 µM, first compound 0.001 µM
  viability, T/C: 103%
[5]
  viability, T/C: 106%
[6]
  viability, T/C: 104%
[7]
  viability, T/C: 105%
[8]
  viability, T/C: 103%
Second compound 1 µM, first compound 0.000316 µM
  viability, T/C: 96.1%
Second compound 1 µM, first compound 0.001 µM
  viability, T/C: 106%
[9]
  viability, T/C: 103%
[10]
  viability, T/C: 108%
[11]
  viability, T/C: 105%
[12]
  viability, T/C: 102%
Second compound 3.16 µM, first compound 0.000316 µM
  viability, T/C: 93.3%
Second compound 3.16 µM, first compound 0.001 µM
  viability, T/C: 94.2%
[13]
  viability, T/C: 99.5%
[14]
  viability, T/C: 90.8%
[15]
  viability, T/C: 93.2%
[16]
  viability, T/C: 94.7%
Second compound 10 µM, first compound 0.000316 µM
  viability, T/C: 101%
Second compound 10 µM, first compound 0.001 µM
  viability, T/C: 100%
[17]
  viability, T/C: 101%
[18]
  viability, T/C: 101%
[19]
  viability, T/C: 96.6%
[20]
  viability, T/C: 94.1%
